One test has as its system subretinal IBA-1+ MPs. The experiment in a line: Laser-injury model in Cx3cr1GFP/GFP mice. Format: in vivo, mouse. Particulars: 2 μl intravitreal at day 4 and day 7, day 10, vs PBS or 4NGG. As for the experimental part:
Laser-coagulations were performed with a 532 nm ophtalmological laser mounted on an operating microscope (Vitra Laser, 532 nm, 450 mW, 50 ms, and 250 μm): Intravitreal injections of 2 μl of HTRA1 and/or TSP1 were performed using glass capillaries (Eppendorf) and a micro injector. The 2 μl injection solution contained 50 μg/ml TSP1 and HTRA1, corresponding to an intraocular concentration of 5 μg/ml of each protein assuming their dilution by approximately 1/10th in the intra-ocular volume. […] A volume of 2 μl of a 100 μM solution of either PBS, recombinant TSP1 (10 μg/ml), the 4NGG control peptide or the CD47-activating peptide PKT16 (200 μM) was injected at day 4 (when MP infiltration is maximal) and day 7 after the injury and evaluated subretinal inflammation on flatmounted RPE/choroidal flatmounts at day 10.
Eyes were enucleated, fixed in 4% PFA 30 minutes and sectioned at the limbus; the cornea and lens were discarded. […] Choroids and retinas were flatmounted and viewed with a fluorescence microscope DM5500B (Leica). IBA-1+ cells were counted on whole RPE/choroidal flatmounts and on the outer segment side of the retina. […]

The next test deals with T1, HTRA1 (Homo sapiens, UniProt Q92743).
T1 construct: purchased R & D
Kind of test: Co-incubation of recombinant TSP1 or TSP2 with recombinant HTRA1 (Coomassie staining, Western blot). Format: biochemical. Particulars: co-incubation at 37° C. for 24 h, Coomassie gel. The protocol: WB analysis was performed using a monoclonal anti-TSP1 antibody (Abeam), as previously described (Houssier et al., PLoS Med. 2008, 5:e39). RT-PCRs primers were ordered from Taqman, reference: Hs01016151_m1.
Western blot analysis of the proteins confirmed the disappearance of the whole sized TSP1 and the appearance of several smaller bands in the co-incubated condition (FIG. 3A). […] Next the functionality of rTSP1 and HTRA1-digested TSP1 was analyzed in laser-induced subretinal inflammation in vivo. […] Accordingly, associated choroidal neovascularization, measured as the surface covered by CD102^−CNV on choroidal flatmounts at d7, underwent the same differences (FIG. 3D).
For orientation: A western blot detects proteins with antibodies after separation by electrophoresis.

In test [1] the test system is recruited monocyte-derived inflammatory macrophages (recMφ). The experiment in a line: Thioglycollate-induced peritonitis. Format: in vivo, mouse. Particulars: single intra-peritoneal injection at day 1, observed at day 2. The protocol:
Mouse peritoneal exudate cells (PECs) were elicited by i.p. injection of 0,5 ml 3% thioglycollate (T9032, Sigma) into 10 weeks old male C57BL/6J and Cd47^−/− mice. After 1 day, PECs were isolated by flushing of the peritoneum with ice-cold PBS, Mφs were negatively selected by magnetic sorting following the manufacturers protocol (EasySep Mouse Monocyte Enrichment Kit, Stemcell Technologies), resuspended in X-VIVO 15 medium (Lonza), and plated in Lab-Tek® Chamber Slide™ (Nunc®).
To test whether CD47 influences inflammation resolution in other pathological contexts, a model of acute thioglycollate-induced peritonitis was used, characterized by an early accumulation of neutrophils, followed by recruited monocyte-derived inflammatory macrophages (recMφ), both experiencing an apoptosis-driven elimination at different kinetics (Gautier et al., Blood. 2013, 122:2714-2722).

Another test deals with microglial cells. The experiment in a line: Subretinal adoptive transfer and clearance of CFSE-labeled microglial cells. Particulars: 24 h after subretinal transfer into wildtype mice, co-injected TSP1 10 μg/ml. Format: in vivo, mouse. The protocol: Microglial cells were prepared from PBS-perfused mice. After dissociation of brain or retina with Neural Dissociation Kit Papain (miltenyi Biotech), 70 μm filtered cell suspensions were washed and resuspended in 75% isotonic Percoll (Percoll Plus, GE Healthcare), overlayed with 25% Percoll and PBS. Cells were centrifuged at 1000 g for 30 min at […]. The ring at the 75%/25% interface was collected, washed with PBS and centrifuged.
According to Levy et al., (EMBO Mol Med. 2015, 7:211-226), brain microglia of the indicated mouse strains were sorted as describe above, labeled in 10 μM CFSE (Life Technologies), washed and resuspended in PBS, 12000 cells (4 μL) were injected using glass microcapillaries (Eppendorf) and a microinjector in the subretinal space of anesthetized 10-14 weeks old wildtype mice. A hole was pierced with the glass capillary prior to the subretinal injection to avoid intra-ocular pressure increase and to allow retinal detachment with 4 μL of solution. The subretinal injection was verified by fundoscopy. In specific experiments, cells were co-injected with recombinant human TSP1 (10 μg/ml, R&D Systems), Eyes were enucleated after 24 hours, fixed in PFA 4% 30 minutes and labeled with DAPI. Eyes with hemorrhages were discarded. CFSE+cells in the subretinal space were quantified on flatmounts on the RPE side of the retina and on the apical side of the RPE.

T1 sequence (Q92743 23-480): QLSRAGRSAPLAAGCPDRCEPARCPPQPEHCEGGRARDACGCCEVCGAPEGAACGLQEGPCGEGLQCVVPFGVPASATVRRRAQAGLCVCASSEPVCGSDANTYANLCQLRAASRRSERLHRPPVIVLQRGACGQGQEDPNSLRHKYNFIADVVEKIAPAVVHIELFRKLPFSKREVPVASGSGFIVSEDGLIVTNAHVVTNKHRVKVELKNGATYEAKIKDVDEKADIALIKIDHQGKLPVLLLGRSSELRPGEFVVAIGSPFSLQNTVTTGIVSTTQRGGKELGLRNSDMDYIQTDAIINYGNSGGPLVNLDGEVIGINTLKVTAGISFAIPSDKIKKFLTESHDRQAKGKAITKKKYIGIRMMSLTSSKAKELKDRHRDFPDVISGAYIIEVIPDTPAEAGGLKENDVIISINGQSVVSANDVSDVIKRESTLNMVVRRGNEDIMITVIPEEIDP

For “recombinant TSP1: recombinant human TSP1 (R&D Systems), natural ligand and agonist of CD47”, the “elimination of subretinal IBA-1+ MPs adjacent to the laser impact” value in the test on subretinal IBA-1+ MPs was “eliminated significantly more efficiently”. Besides, in the test with HTRA1, the “degradation by recombinant HTRA1” value is given as “degrades”. In test [1], the “elimination of recMφs” value is recorded as “significantly accelerated the elimination”. Further, the “elimination of Cd47-/- microglial cells” value in the test with microglial cells (CFSE+ Cd47-/- microglial cells) is listed as “no effect”. Besides, the “elimination of Tsp1-/- microglial cells” value in the test on microglial cells (CFSE+ Tsp1-/- microglial cells) is on record as “reversed the phenotype”. Also, the “elimination of wildtype microglial cells” value in the test on microglial cells (CFSE+ wildtype microglial cells) is given as “very significantly accelerated the elimination”.

These data come from patent US11142548B2, “Agents that activate CD47 and their use in the treatment of inflammation” (SORBONNE UNIVERSITE, priority 2016, dated 2021).
